According to patent US20140038991A1, “Protein Kinase Inhibitors” (Astar Biotech LLC, priority 2012, published 2014):

Legend:
[1] = test system: LNCaP (with PTEN-null, prostate tumor cell line); assay: Cell-based viability assay (trypan blue exclusion) in LNCaP cells; details: 72 hours treatment, read-out: LNCaP (with PTEN-null, prostate tumor cell line), IC50 (nM) (using cell trypan blue exclusion assay to detect the cell viability)
Description: 1. Cell-Based Assays: Cells were seeded in 24-well plates with a concentration of 10×10^5 cells/mL/well, and treated with the designated agents in the next day. After 72 hours treatment, cells were harvested and stained using the trypan blue exclusion method and measured using the TC-10™ automated cell counter (Bio-rad).

[2] = test system: downstream targets of PI3K/mTOR in T47D (with PIK3CA mutation, breast tumor cell line); assay: Western blot detection of downstream targets of PI3K/mTOR in T47D cells; assay type: cell-based; details: read-out: T47D (with PIK3CA mutation, breast tumor cell line), IC50 (nM) (using Westin blot to detect the downstream targets of PI3K/mTOR)
Description: a. Harvest Cells and Run Cell Extracts on a SDS-PAGE Gel
Cells were harvested bytrypsinization and centrifugation at 500 rpm for 5 min and the supernatant was removed. Cell pellet was resuspended with appropriate volume of 1× lysis buffer (10× lysis buffer from Cell Signaling Technology, Catalog #9803, Boston, Mass.) containing protease inhibitors (Protease Inhibitor Cocktail Tablets, Roche, cat#11 697 498 001 and PMSF, NaF, Na3VO3, Leupeptin and pepstatin A), then directly sonicated the suspension for 5 seconds. Protein concentration was measured using Pierce BAC protein assay kit (catalog #23227). The protein sample was read with EL800 of Bio-TEK at […] wave length and the concentration was calculated. 60 ug protein of each sample was loaded on an 8-15% SDS-PAGE and run at 120V for an appropriate period till the dye front reached the bottom of the gel. […]
b. Transfer the Protein from the Gel to a Membrane
Placed a cassette using pre-wet Watman paper(bio-rad, catalog #1703932), gel and membrane (PVDF membrane with pre-soak in methanol for 3 min, then equilibrated in transfer buffer for 5 min), and performed the transfer using bio-rad transfer system at 100v for 1.5 hr at cool room.
Removed the membrane from the transfer apparatus and placed it in the blocking buffer [5% non-fat dry milk in 1×TBS-T containing NaCl 8 g, Tris-Cl 2.37 g, TrisBase 0.6 g in 1 liter of water (pH 7.6) and 1 ml of Tween-20]. Incubated the membrane in the blocking buffer on a shaker for 0.5-1 hr at room temperature.
Diluted the primary antibody at 1:1000 using TBS-T containing 5% non-fat dry milk, and incubated the membrane in the primary antibody solution on a shaker overnight at 4° C. Then removed the primary antibody solution, and washed the membrane with 1×TBS-T 3 times for 10 min each time. e. Secondary Antibody, Substrate Addition and Film Explosure
Diluted the second antibody (cell signaling technology cat#7076 anti-mouse IgG, HRP-linked antibody, or cat#7074, anti-rabbit IgG, HRP-linked antibody) at 1:3000 using TBS-T containing 5% non-fat dry milk. Decanted the wash buffer and incubated the membrane in the prepared secondary antibody solution on shaker for 2 hr at room temperature. Decanted the secondary antibody solution and washed thoroughly with 1×TBS-T for 3 times for 10 min each time. Prepared for substrate solution: luminal/enhancer solution mix with stable peroxide solution (Amersham ECL Plus™ Western Blotting Detection Reagents. Cat#: RPN2132). Total amount of substrate solution needed was approximate 2 ml per membrane. Placed the membrane with the protein side up on a flat Saran wrap, and dropped the prepared substrate solution over the membrane, and incubated the membrane for 2 minutes. […]

Compound	IC50 [1] [nM]	IC50 [2] [nM]
COc1ncc(-c2cc3c(C)nc(N)nc3n([C@H]3CC[C@H](OCCO)CC3)c2=O)cc1NS(=O)(=O)c1ccccc1 [Example 1, N-(5-(2-amino-8-(trans-4-(2-hydroxyethoxy)-cyclohexyl)-4-methyl-7-oxo-7,8-dihydropyrido[2,3-d]pyrimidin-6-yl)-2-methoxypyridin-3-yl)benzenesulfonamide]	35	12
COc1ncc(-c2cc3c(C)nc(N)nc3n([C@H]3CC[C@H](OCCO)CC3)c2=O)cc1NS(C)(=O)=O [Example 2, N-(5-(2-amino-8-(trans-4-(2-hydroxyethoxy)cyclohexyl)-4-methyl-7-oxo-7,8-dihydropyrido[2,3-d]pyrimidin-6-yl)-2-methoxypyridin-3-yl)methanesulfonamide]	150	–
CCS(=O)(=O)Nc1cc(-c2cc3c(C)nc(N)nc3n([C@H]3CC[C@H](OCCO)CC3)c2=O)cnc1OC [Example 3, N-(5-(2-amino-8-(trans-4-(2-hydroxyethoxy)cyclohexyl)-4-methyl-7-oxo-7,8-dihydropyrido [2,3-d]pyrimidin-6-yl)-2-methoxypyridin-3-yl)ethanesulfonamide]	140	–
COc1ncc(-c2cc3c(C)nc(N)nc3n([C@H]3CC[C@H](OCCO)CC3)c2=O)cc1NS(=O)(=O)C1CC1 [Example 4, N-(5-(2-amino-8-(trans-4-(2-hydroxyethoxy)cyclohexyl)-4-methyl-7-oxo-7,8-dihydropyrido[2,3-d]pyrimidin-6-yl)-2-methoxypyridin-3-yl)cyclopropanesulfonamide]	130	–
COc1ncc(-c2cc3c(C)nc(N)nc3n([C@H]3CC[C@H](OCCO)CC3)c2=O)cc1NS(=O)(=O)c1ccc(F)cc1 [Example 5, N-(5-(2-amino-8-(trans-4-(2-hydroxyethoxy)cyclohexyl)-4-methyl-7-oxo-7,8-dihydropyrido[2,3-d]pyrimidin-6-yl)-2-methoxypyridin-3-yl)-4-fluorobenzenesulfonamide]	55	–
COc1ncc(-c2cc3c(C)nc(N)nc3n([C@H]3CC[C@H](OCCO)CC3)c2=O)cc1NS(=O)(=O)c1c(F)cccc1F [Example 6, N-(5-(2-amino-8-(trans-4-(2-hydroxyethoxy)cyclohexyl)-4-methyl-7-oxo-7,8-dihydropyrido[2,3-d]pyrimidin-6-yl)-2-methoxypyridin-3-yl)-2,6-difluorobenzenesulfonamide]	60	–
COc1ccc(S(=O)(=O)Nc2cc(-c3cc4c(C)nc(N)nc4n([C@H]4CC[C@H](OCCO)CC4)c3=O)cnc2OC)cc1 [Example 7, N-(5-(2-amino-8-(trans-4-(2-hydroxyethoxy)cyclohexyl)-4-methyl-7-oxo-7,8-dihydropyrido[2,3-d]pyrimidin-6-yl)-2-methoxypyridin-3-yl)-4-methoxybenzenesulfonamide]	40	12
COc1ncc(-c2cc3c(C)nc(N)nc3n([C@H]3CC[C@H](OCCO)CC3)c2=O)cc1NS(=O)(=O)c1ccc(C)cc1 [Example 8, N-(5-(2-amino-8-(trans-4-(2-hydroxyethoxy)cyclohexyl)-4-methyl-7-oxo-7,8-dihydropyrido[2,3-d]pyrimidin-6-yl)-2-methoxypyridin-3-yl)-4-methylbenzenesulfonamide]	45	15
COc1ccc(-c2cc3c(C)nc(N)nc3n(C3CCC(OCCO)CC3)c2=O)cn1 (stereo not shown) [PF-1502, reference compound]	75	85
